Source: patent publication US20100286155A1, “ADRENOCORTICAL CARCINOMA TREATMENT” (OSI PHARMACEUTICALS, INC., priority 2009, published 2010)

Experiments:
[1] = target: T1, IGF-1R (Homo sapiens, UniProt P08069); test: pIGF-1R inhibition in H295R tumor cells, RTK capture array; assay type: cell-based; conditions: 3 uM, 24 hours
T1 construct: endogenous in cells; host or cells: H295R ACC tumor cell line
Protocol: (§1) Measurement of pIGF-1R and pIR was determined by RTK capture array (ARY001, R&D Systems), and measurement of pAkt was determined by WB.

[2] = test system: pAkt; test: pAkt inhibition in H295R tumor cells, WB; assay type: cell-based, human; conditions: 3 uM, 24 hours
Protocol: as §1

[3] = test system: H295R ACC tumor cell line; test: H295R ACC tumor cell line OSI-906 sensitivity: proliferation (Cell Titer Glo) and apoptosis (Caspase Glo); assay type: cell-based, human; conditions: varying concentrations; proliferation at 72 h, apoptosis at 48 h after dosing
[4] = test system: adrenocortical carcinoma (ACC); test: Phase I clinical trials of OSI-906 in ACC patients (RECIST, CT, FDG-PET); assay type: in vivo, human
Protocol: As of 14 Apr. 2009 in two phase I clinical trials, seven patients have been enrolled with ACC.
Patient 1 is a ACC patient, previously treated with six cycles of etoposide, cisplatin, and doxorubicin and mitotane from Feb. 2008 to Jul. 2008. […] 1, 2008, 450 mg/day, escalating to 600 mg, on days 1-3 of each 14 day period. At 8 weeks of treatment, CT scan was reported as stable. […] The overall reduction in RECIST measurement of target lesions was 43%. Subsequent scans indicated incremental response, including a scan showing a partial response of 72% decrease by RECIST compared to baseline. […] ACC is typically thought to be an FDG-avid tumor.
Objective Response Criteria (RECIST)
Complete Response: Disappearance of all clinical and radiological evidence of tumor (both target and nontarget) including normalization of elevated tumor markers at baseline, if documented. The patient must be free of all tumor-related symptoms. Complete Response must be confirmed at a second tumor assessment not less than 28 days apart from the assessment at which CR was observed.
Partial Response: At least a 30% decrease in the sum of Longest Diameter (LD) of target lesions taking as reference the baseline sum LD. Partial Response must be confirmed at a second tumor assessment not less than 28 days apart from the assessment at which PR was observed.
Stable Disease: Steady state of disease. Neither sufficient shrinkage to qualify for PR nor sufficient increase to qualify for progressive disease. Stable disease must be documented to be present at least 28 days from the start of the therapy. There may be no appearance of new lesions for this category.
Progressive Disease: At least a 20% increase in the sum of LD of measured lesions taking as references the smallest sum LD recorded since the treatment started. Appearance of new lesions will also constitute progressive disease. In exceptional circumstances, unequivocal progression of nontarget lesions may be accepted as evidence of disease progression (DP).
All patients who have measurable disease according to RECIST, who received at least 2 treatment periods of therapy, and who have their disease re-evaluated will be evaluable for response. All sites of disease should be followed as either target or nontarget lesions, as categorized at baseline. All measurable lesions up to a maximum of 5 lesions per organ or 10 lesions in total, representative of all involved organs, should be identified as target lesions, while all other lesions (either additional measurable lesions or nonmeasurable lesions) should be classified as nontarget lesions. To ensure comparability, the baseline radiology/scans and subsequent radiology/scans to assess response should be performed using identical techniques (i.e., scans performed immediately following bolus contrast administration should be made with a standard volume of contrast, the identical contrast agent, and preferably the same scanner). The same method, radiological or physical, should be employed and assessed by the same individual on each occasion.

[5] = Patient 1, 450 mg/day escalating to 600 mg, days 1-3 of each 14 day period
[6] = seven ACC patients enrolled in two phase I trials, as of 14 Apr. 2009

T1 sequence (P08069 31-1367): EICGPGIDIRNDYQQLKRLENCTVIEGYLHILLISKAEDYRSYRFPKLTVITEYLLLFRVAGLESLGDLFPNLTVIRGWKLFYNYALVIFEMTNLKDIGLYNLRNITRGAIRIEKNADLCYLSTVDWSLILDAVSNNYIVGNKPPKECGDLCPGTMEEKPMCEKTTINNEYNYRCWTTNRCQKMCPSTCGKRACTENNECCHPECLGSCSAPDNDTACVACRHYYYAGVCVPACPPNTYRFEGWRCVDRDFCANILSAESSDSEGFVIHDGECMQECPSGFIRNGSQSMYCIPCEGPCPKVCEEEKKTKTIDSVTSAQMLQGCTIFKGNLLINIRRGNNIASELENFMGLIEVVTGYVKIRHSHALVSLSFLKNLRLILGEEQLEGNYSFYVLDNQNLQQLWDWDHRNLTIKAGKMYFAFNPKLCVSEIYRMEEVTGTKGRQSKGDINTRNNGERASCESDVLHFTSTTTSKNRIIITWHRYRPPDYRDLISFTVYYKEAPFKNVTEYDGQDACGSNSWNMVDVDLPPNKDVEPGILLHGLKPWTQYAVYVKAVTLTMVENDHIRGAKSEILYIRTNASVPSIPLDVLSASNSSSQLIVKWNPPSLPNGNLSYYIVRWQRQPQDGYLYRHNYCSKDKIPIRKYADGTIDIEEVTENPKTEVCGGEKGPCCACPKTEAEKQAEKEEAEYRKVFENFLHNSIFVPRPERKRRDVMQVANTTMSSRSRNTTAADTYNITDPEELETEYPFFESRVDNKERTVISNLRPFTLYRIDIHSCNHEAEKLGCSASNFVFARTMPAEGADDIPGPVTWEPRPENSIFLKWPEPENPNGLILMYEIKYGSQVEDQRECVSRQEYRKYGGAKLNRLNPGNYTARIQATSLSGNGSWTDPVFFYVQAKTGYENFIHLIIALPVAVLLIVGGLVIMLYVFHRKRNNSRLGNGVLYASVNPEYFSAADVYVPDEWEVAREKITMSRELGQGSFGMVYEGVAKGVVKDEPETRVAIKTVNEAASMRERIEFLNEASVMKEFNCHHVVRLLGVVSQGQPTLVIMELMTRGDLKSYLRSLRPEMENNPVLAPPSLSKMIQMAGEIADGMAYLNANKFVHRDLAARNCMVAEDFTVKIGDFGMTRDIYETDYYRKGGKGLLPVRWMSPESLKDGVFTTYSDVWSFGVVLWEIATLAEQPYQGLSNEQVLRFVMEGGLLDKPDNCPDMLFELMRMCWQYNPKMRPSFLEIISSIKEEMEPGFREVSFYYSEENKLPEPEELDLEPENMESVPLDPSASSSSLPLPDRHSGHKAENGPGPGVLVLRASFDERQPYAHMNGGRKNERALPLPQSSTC

## C[C@]1(O)C[C@@H](c2nc(-c3ccc4ccc(-c5ccccc5)nc4c3)c3c(N)nccn32)C1 [OSI-906, cis-3-[8-amino-1-(2-phenyl-quinolin-7-yl)-imidazo[1,5-a]pyrazin-3-yl]-1-methyl-cyclobutanol]
[1]
  inhibition of phosphorylation of IGF-1R (pIGF-1R): inhibits phosphorylation of both receptors
[2]
  inhibition of pAkt: inhibition of pAkt
[3]
  sensitivity of H295R ACC tumor cell line (proliferation and apoptosis): exhibits sensitivity to OSI-906
[4]; [5]
  CT scan result at 8 weeks of treatment: stable
  CT scan result at 16 weeks: decrease in primary lesion as well as improvement in all pulmonary lesions
[4]; Patient 1, 30 weeks into treatment, residual primary tumor and two remaining metastases
  18-FDG-PET scan tumor uptake of tracer: no tumor uptake of the tracer
[4]; Patient 1, at 16 weeks
  overall reduction in RECIST measurement of target lesions: 43%
[4]; Patient 1, subsequent scan
  partial response, decrease by RECIST compared to baseline: 72%
[4]; Patient 1, up to 56 weeks
  drug-related toxicities: No drug-related toxicities have been observed
[4]; [6]
  patients with partial response: One had partial response
  patients with stable disease: two had stable disease for >6 months
  patients with symptomatic response: one had a dramatic, short-lived sympitomatic response
